The IC50 is the concentration at which inhibition is half-maximal.

The values below come from ChEMBL document CHEMBL1157196, “Structure-based discovery of a novel non-peptidic small molecular inhibitor of caspase-3” (Bioorg Med Chem, 2008).

Some results are limits rather than exact numbers.

For one assay, the target named is Caspase-8 (Homo sapiens, UniProt Q14790). The assay is described as follows: Inhibition of human recombinant caspase 8 preincubated for 10 mins.
The target in another assay is T1, Caspase-9 (Homo sapiens, UniProt P55211).
T1 sequence (P55211 whole entry): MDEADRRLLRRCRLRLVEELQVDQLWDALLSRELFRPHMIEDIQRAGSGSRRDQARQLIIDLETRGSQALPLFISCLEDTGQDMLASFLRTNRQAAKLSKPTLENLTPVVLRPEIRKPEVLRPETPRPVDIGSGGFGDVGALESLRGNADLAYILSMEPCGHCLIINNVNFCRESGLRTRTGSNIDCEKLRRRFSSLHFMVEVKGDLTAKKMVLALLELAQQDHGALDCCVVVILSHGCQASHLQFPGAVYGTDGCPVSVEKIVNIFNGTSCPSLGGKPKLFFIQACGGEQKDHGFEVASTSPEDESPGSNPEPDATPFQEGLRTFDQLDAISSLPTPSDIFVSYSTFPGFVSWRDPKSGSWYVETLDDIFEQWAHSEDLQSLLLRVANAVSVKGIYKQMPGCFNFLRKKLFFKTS
The assay is described as follows: Inhibition of human recombinant caspase 9 preincubated for 10 mins.

A further assay has as its target T2, Caspase-3 (Homo sapiens, UniProt P42574).
T2 sequence (P42574 whole entry): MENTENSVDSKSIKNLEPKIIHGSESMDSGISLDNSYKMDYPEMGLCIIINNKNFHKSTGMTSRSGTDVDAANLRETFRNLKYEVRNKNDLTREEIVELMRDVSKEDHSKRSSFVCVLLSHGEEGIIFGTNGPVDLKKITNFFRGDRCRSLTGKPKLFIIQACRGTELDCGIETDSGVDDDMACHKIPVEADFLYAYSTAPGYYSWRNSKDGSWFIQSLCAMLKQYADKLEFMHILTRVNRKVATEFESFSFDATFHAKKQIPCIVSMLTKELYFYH
Put plainly: Inhibition of human recombinant caspase 3 preincubated for 10 mins.

In the next assay the target is T3, Caspase-7 (Homo sapiens, UniProt P55210).
T3 sequence (P55210 whole entry): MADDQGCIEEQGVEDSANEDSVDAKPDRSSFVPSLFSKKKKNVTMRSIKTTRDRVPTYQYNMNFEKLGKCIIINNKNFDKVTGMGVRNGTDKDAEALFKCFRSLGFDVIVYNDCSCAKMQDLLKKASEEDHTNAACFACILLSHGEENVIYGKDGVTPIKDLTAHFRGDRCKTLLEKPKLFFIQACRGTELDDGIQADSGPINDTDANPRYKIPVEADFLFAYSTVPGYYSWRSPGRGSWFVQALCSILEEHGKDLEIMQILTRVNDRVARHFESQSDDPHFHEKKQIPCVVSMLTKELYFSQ
Put plainly: Inhibition of human recombinant caspase 7 preincubated for 10 mins.

Chain of Caspase-8 (Q14790 217-374 limits assumed): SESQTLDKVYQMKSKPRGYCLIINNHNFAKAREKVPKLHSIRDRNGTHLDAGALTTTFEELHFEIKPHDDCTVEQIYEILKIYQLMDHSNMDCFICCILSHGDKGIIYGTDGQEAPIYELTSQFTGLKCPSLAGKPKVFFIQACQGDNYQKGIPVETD
Chain of Caspase-8 (Q14790 385-479 limits assumed): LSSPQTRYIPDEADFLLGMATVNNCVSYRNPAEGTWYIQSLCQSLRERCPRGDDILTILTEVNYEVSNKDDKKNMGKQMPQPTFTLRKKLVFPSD

In the case of `CCOC(=O)COc1cc(C(=O)O)c(O)c2ccccc12`, the IC50 was > 100 µM at Caspase-8, 93 µM at Caspase-9, 13.6 µM on Caspase-3 and 84.9 µM on Caspase-7.
